Experimental data from patent publication US8877769B2, “Heteroaryl-substituted urea modulators of fatty acid amide hydrolase” (Janssen Pharmaceutica NV, priority 2008, dated 2014).

Tests used:
[1] = biological target: T1, Rat FAAH (Rattus norvegicus, UniProt P97612); assay: Assay Method 2: FAAH assay, 3H-anandamide hydrolysis in cell homogenate; type: biochemical; conditions: average of results obtained, > value = solubility limit or highest concentration tested
T1 construct: expressed in transfected cells
T1 sequence (P97612 1-579): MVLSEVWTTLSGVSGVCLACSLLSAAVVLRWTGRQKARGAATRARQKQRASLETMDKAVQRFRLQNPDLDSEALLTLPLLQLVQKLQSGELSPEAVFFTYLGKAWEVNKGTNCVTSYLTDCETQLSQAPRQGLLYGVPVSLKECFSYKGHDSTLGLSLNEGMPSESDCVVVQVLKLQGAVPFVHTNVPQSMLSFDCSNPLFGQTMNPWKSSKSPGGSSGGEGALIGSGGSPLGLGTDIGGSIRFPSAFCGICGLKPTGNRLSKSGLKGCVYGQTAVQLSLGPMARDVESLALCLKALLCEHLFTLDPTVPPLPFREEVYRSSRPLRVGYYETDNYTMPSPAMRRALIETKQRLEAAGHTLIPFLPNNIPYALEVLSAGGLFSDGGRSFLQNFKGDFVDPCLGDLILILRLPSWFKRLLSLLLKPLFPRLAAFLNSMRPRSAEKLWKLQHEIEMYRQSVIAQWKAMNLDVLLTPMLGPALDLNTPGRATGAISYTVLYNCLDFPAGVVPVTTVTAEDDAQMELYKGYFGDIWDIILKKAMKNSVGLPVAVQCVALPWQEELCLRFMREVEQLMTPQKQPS
Description: A. Transfection of Cells with Rat FAAH
The assay mixture consisted of 50 μL of the cell homogenate, 10 μL of the test compound, and 40 μL of anandamide [1-^3H-ethanolamine] (^3H-AEA, Perkin-Elmer, 10.3 Ci/mmol), which was added last, for a final tracer concentration of 80 nM. The reaction mixture was incubated at rt for 1 h. During the incubation, 96-well Multiscreen filter plates (catalog number MAFCNOB50; Millipore, Bedford, Mass., USA) were loaded with 25 μL of activated charcoal (Multiscreen column loader, catalog number MACL09625, Millipore) and washed once with 100 μL of MeOH. […] After the 1 h incubation, 60 μL of the reaction mixture were transferred to the charcoal plates, which were then assembled on top of the DYNEX plates using Centrifuge Alignment Frames (catalog number MACF09604, Millipore). The unbound labeled ethanolamine was centrifuged through to the bottom plate (5 min at 2000 rpm), which was preloaded with the scintillant, as described above. The plates were sealed and left at rt for 1 h before counting on a Hewlett Packard TopCount.

[2] = biological target: T2, FAAH (Homo sapiens, UniProt O00519); assay: Assay Method 1: FAAH assay, 3H-anandamide hydrolysis in cell homogenate
T2 sequence (O00519 1-579): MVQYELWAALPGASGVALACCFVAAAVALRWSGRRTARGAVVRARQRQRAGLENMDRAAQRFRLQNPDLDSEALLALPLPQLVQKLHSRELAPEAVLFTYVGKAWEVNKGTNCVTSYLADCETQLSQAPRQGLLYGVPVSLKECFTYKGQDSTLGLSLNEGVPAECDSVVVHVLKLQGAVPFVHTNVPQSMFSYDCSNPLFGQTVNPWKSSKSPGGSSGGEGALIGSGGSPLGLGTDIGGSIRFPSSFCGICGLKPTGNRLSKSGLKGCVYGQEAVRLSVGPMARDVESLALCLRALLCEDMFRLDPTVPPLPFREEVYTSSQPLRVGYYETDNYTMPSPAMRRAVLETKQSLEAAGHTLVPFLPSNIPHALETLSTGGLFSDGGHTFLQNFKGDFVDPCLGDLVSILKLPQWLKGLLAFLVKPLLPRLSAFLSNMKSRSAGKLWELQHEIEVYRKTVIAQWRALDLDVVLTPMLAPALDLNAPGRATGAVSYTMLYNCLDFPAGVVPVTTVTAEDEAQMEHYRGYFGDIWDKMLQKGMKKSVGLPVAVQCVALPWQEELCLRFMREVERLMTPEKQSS

Row | Structure (SMILES) | IC50 [1] | IC50 [2]
1 | O=C(Nc1noc2ncccc12)N1CCN(Cc2ccc(Br)cc2)CC1 [Example 11, 4-(4-Bromo-benzyl)-piperazine-1-carboxylic acid isoxazolo[5,4-b]pyridin-3-ylamide] | > 10000 nM | > 10000 nM
2 | O=C(Nc1noc2ncccc12)N1CCN(Cc2ccc3ccccc3n2)CC1 [Example 12, 4-Quinolin-2-ylmethyl-piperazine-1-carboxylic acid isoxazolo[5,4-b]pyridin-3-ylamide] | > 10000 nM | 2600 nM
3 | O=C(Nc1noc2ncccc12)N1CCN(Cc2ccc(Cl)c(Cl)c2)CC1 [Example 13, 4-(3,4-Dichloro-benzyl)-piperazine-1-carboxylic acid isoxazolo[5,4-b]pyridin-3-ylamide] | 3000 nM | 460 nM
4 | O=C(Nc1noc2ncccc12)N1CCN(Cc2cccc(Oc3ccc(F)c(C(F)(F)F)c3)c2)CC1 [Example 14, 4-[3-(4-Fluoro-3-trifluoromethyl-phenoxy)-benzyl]-piperazine-1-carboxylic acid isoxazolo[5,4-b]pyridin-3-ylamide] | 4000 nM | 470 nM
5 | O=C(Nc1noc2ncccc12)N1CCN(Cc2cccc(Oc3cccc(C(F)(F)F)c3)c2)CC1 [Example 15, 4-[3-(3-Trifluoromethyl-phenoxy)-benzyl]-piperazine-1-carboxylic acid isoxazolo[5,4-b]pyridin-3-ylamide] | 860 nM | 300 nM
6 | N#Cc1cccc(Oc2cccc(CN3CCN(C(=O)Nc4noc5ncccc45)CC3)c2)c1 [Example 16, 4-[3-(3-Cyano-phenoxy)-benzyl]-piperazine-1-carboxylic acid isoxazolo[5,4-b]pyridin-3-ylamide] | 6000 nM | 2000 nM
7 | O=C(Nc1noc2ncccc12)N1CCN(Cc2cccc(Oc3ccc(SC(F)(F)F)cc3)c2)CC1 [Example 17, 4-[3-(4-Trifluoromethylsulfanyl-phenoxy)-benzyl]-piperazine-1-carboxylic acid isoxazolo[5,4-b]pyridin-3-ylamide] | 180 nM | 470 nM
8 | O=C(Nc1noc2ncccc12)N1CCN(Cc2cccc(Oc3ccc4ncccc4c3)c2)CC1 [Example 18, 4-[3-(Quinolin-6-yloxy)-benzyl]-piperazine-1-carboxylic acid isoxazolo[5,4-b]pyridin-3-ylamide] | > 10000 nM | 6000 nM
9 | N#Cc1ccc(Oc2cccc(CN3CCN(C(=O)Nc4noc5ncccc45)CC3)c2)cc1C(F)(F)F [Example 19, 4-[3-(4-Cyano-3-trifluoromethyl-phenoxy)-benzyl]-piperazine-1-carboxylic acid isoxazolo[5,4-b]pyridin-3-ylamide] | > 10000 nM | > 10000 nM
10 | O=C(Nc1noc2ncccc12)N1CCN(Cc2cccc(OCc3ccccc3)c2)CC1 [Example 21, 4-(3-Benzyloxy-benzyl)-piperazine-1-carboxylic acid isoxazolo[5,4-b]pyridin-3-ylamide] | > 10000 nM | 2000 nM
11 | O=C(Nc1noc2ncccc12)N1CCN(Cc2cccc(Oc3ccc(S(=O)(=O)C(F)(F)F)cc3)c2)CC1 [Example 22, 4-[3-(4-Trifluoromethanesulfonyl-phenoxy)-benzyl]-piperazine-1-carboxylic acid isoxazolo[5,4-b]pyridin-3-ylamide] | > 10000 nM | > 10000 nM
12 | O=C(Nc1noc2ncccc12)N1CCN(Cc2cccc(Oc3cccc(Cl)c3)c2)CC1 [Example 23, 4-[3-(3-Chloro-phenoxy)-benzyl]-piperazine-1-carboxylic acid isoxazolo[5,4-b]pyridin-3-ylamide] | 300 nM | 220 nM
13 | O=C(Nc1noc2ncccc12)N1CCN(Cc2cccc(Oc3ccc(Br)cc3)c2)CC1 [Example 24, 4-[3-(4-Bromo-phenoxy)-benzyl]-piperazine-1-carboxylic acid isoxazolo[5,4-b]pyridin-3-ylamide] | 53 nM | 34 nM
14 | O=C(Nc1noc2ncccc12)N1CCN(Cc2ccc(Br)c(Br)c2)CC1 [Example 25, 4-(3,4-Dibromo-benzyl)-piperazine-1-carboxylic acid isoxazolo[5,4-b]pyridin-3-ylamide] | 3000 nM | 370 nM
15 | O=C(Nc1noc2ncccc12)N1CCN(Cc2cccc(Oc3ccc(F)c(F)c3)c2)CC1 [Example 26, 4-[3-(3,4-Difluoro-phenoxy)-benzyl]-piperazine-1-carboxylic acid isoxazolo[5,4-b]pyridin-3-ylamide] | > 10000 nM | 3200 nM
16 | O=C(Nc1noc2ncccc12)N1CCN(Cc2cccc(Oc3ccccc3)c2)CC1 [Example 27, 4-(3-Phenoxy-benzyl)-piperazine-1-carboxylic acid isoxazolo[5,4-b]pyridin-3-ylamide] | > 10000 nM | > 10000 nM
17 | O=C(Nc1noc2ncccc12)N1CCN(Cc2cc3ccccc3s2)CC1 [Example 28, 4-Benzo[b]thiophen-2-ylmethyl-piperazine-1-carboxylic acid isoxazolo[5,4-b]pyridin-3-ylamide] | > 10000 nM | 6000 nM
18 | O=C(Nc1noc2ncccc12)N1CCN(Cc2cccc(Oc3ccc(C(F)(F)F)cc3)c2)CC1 [Example 30, 4-[3-(4-Trifluoromethyl-phenoxy)-benzyl]-piperazine-1-carboxylic acid isoxazolo[5,4-b]pyridin-3-ylamide] | 430 nM | 340 nM
19 | O=C(Nc1noc2ncccc12)N1CCN(Cc2cc3ccccc3o2)CC1 [Example 31, 4-Benzofuran-2-ylmethyl-piperazine-1-carboxylic acid isoxazolo[5,4-b]pyridin-3-ylamide] | > 10000 nM | 3000 nM
20 | N#Cc1ccc(Oc2cccc(CN3CCN(C(=O)Nc4noc5ncccc45)CC3)c2)cc1 [Example 32, 4-[3-(4-Cyano-phenoxy)-benzyl]-piperazine-1-carboxylic acid isoxazolo[5,4-b]pyridin-3-ylamide] | 2300 nM | 300 nM
21 | O=C(Nc1noc2ncccc12)N1CCN(Cc2cccc(Oc3ccc(OCC(F)(F)F)cc3)c2)CC1 [Example 33, 4-{3-[4-(2,2,2-Trifluoro-ethoxy)-phenoxy]-benzyl}-piperazine-1-carboxylic acid isoxazolo[5,4-b]pyridin-3-ylamide] | 200 nM | 200 nM
22 | O=C(Nc1noc2ncccc12)N1CCN(Cc2cccc(Oc3ccc4c(c3)OC(F)(F)O4)c2)CC1 [Example 34, 4-[3-(2,2-Difluoro-benzo[1,3]dioxol-5-yloxy)-benzyl]-piperazine-1-carboxylic acid isoxazolo[5,4-b]pyridin-3-ylamide] | > 400 nM | > 60 nM
23 | O=C(Nc1noc2ncccc12)N1CCN(Cc2cccc(Oc3cccc(Br)c3)c2)CC1 [Example 35, 4-[3-(3-Bromo-phenoxy)-benzyl]-piperazine-1-carboxylic acid isoxazolo[5,4-b]pyridin-3-ylamide] | 300 nM | 150 nM
24 | O=C(Nc1noc2ncccc12)N1CCN(Cc2cccc(Oc3cccc(OC(F)(F)F)c3)c2)CC1 [Example 36, 4-[3-(3-Trifluoromethoxy-phenoxy)-benzyl]-piperazine-1-carboxylic acid isoxazolo[5,4-b]pyridin-3-ylamide] | 6000 nM | 1400 nM
25 | O=C(Nc1noc2ncccc12)N1CCN(Cc2cccc(Oc3ccc(OC(F)(F)F)cc3)c2)CC1 [Example 37, 4-[3-(4-Trifluoromethoxy-phenoxy)-benzyl]-piperazine-1-carboxylic acid isoxazolo[5,4-b]pyridin-3-ylamide] | 100 nM | 200 nM
